Key:
[1] = biological target: Delta-type opioid receptor (Homo sapiens, UniProt P41143); experiment: Displacement of [3H]-diprenorphine from human delta opioid receptor expressed in cell membranes
[2] = biological target: Kappa-type opioid receptor (Cavia porcellus, UniProt P41144); experiment: Displacement of [3H]-diprenorphine from guinea pig kappa opioid receptor expressed in CHOK1 cell membranes; details: cho-k1
[3] = biological target: Mu-type opioid receptor (Homo sapiens) (UniProt P35372); experiment: Intrinsic activity at human mu opioid receptor expressed in CHOK1 cell membranes at 0.00001 to 20 uM after 30 mins by GTP-Eu nucleotide exchange assay relative to DAMGO; type: functional; details: CHO-K1
Mu-type opioid receptor (Homo sapiens), sequence (P35372 whole entry): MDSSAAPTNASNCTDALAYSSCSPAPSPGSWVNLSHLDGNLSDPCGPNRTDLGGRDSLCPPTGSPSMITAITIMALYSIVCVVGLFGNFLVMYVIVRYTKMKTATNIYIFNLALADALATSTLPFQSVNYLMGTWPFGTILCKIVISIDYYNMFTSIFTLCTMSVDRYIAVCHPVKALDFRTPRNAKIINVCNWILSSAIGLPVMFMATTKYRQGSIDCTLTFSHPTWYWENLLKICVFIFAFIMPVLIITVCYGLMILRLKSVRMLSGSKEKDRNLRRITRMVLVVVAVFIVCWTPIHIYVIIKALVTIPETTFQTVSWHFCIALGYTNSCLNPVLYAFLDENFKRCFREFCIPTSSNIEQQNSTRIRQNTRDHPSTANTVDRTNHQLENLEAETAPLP

Delta-type opioid receptor, sequence (P41143 whole entry): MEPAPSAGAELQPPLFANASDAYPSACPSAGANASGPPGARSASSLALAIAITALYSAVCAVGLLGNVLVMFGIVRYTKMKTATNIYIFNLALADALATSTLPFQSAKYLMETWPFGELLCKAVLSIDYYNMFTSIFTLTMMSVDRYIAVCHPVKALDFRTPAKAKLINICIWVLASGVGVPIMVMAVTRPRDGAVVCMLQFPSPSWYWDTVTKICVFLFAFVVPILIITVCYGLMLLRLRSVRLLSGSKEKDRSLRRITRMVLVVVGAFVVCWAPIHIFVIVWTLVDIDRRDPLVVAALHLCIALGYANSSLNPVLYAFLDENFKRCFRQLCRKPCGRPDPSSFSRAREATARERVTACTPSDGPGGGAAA
Kappa-type opioid receptor, sequence (P41144 whole entry): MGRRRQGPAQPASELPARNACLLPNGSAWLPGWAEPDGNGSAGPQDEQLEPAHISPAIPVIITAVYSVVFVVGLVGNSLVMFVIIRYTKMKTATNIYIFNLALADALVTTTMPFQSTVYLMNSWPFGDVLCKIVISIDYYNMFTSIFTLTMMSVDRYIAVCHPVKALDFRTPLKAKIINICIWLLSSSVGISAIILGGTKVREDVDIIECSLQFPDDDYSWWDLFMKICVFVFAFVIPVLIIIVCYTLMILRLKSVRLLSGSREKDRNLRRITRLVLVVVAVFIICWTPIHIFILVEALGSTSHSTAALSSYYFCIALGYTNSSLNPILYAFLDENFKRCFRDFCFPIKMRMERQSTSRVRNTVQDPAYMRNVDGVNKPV

Row | Compound | pKi [1] | pKi [2] | Intrinsic activity [3] [%]
1 | CC(CO)(CO)C(=O)N(CCN1[C@@H]2CC[C@H]1C[C@@H](c1cccc(C(N)=O)c1)C2)CC1CCCC1.O=C(O)C(F)(F)F | 7 to 10.5 | 7 to 10.5 | < 40
2 | C[C@H](CN1[C@@H]2CC[C@H]1C[C@@H](c1cccc(O)c1)C2)N(Cc1ccccc1)C(=O)CCC(=O)O | 7 to 10.5 | 7 to 10.5 | < 40
3 | CN(C)[C@@H](Cc1ccccc1)C(=O)N(CCN1[C@@H]2CC[C@H]1C[C@@H](c1cccc(C(N)=O)c1)C2)CC1CCCCC1 | 7 to 10.5 | 7 to 10.5 | < 40
4 | CC(C)(O)C(=O)N(CCN1[C@@H]2CC[C@H]1C[C@@H](c1cccc(C(N)=O)c1)C2)Cc1c(F)cccc1F.O=C(O)C(F)(F)F | 7 to 10.5 | 7 to 10.5 | < 40
5 | NC(=O)c1cccc([C@H]2C[C@H]3CC[C@@H](C2)N3CCCN(CC2CCCCC2)C(=O)CO)c1 | 7 to 10.5 | 7 to 10.5 | < 40
6 | NC(=O)c1cccc([C@H]2C[C@H]3CC[C@@H](C2)N3CCN(CC2CCCCC2)C(=O)[C@H](O)CO)c1 | 7 to 10.5 | 7 to 10.5 | < 40
7 | CS(=O)(=O)N(CCN1[C@@H]2CC[C@H]1C[C@@H](c1cccc(C(N)=O)c1)C2)CC1CCCC1.O=C(O)C(F)(F)F | 7 to 10.5 | 7 to 10.5 | < 40
8 | CC(C)CC(=O)N(CCN1[C@@H]2CC[C@H]1C[C@@H](c1cccc(O)c1)C2)Cc1c(F)cccc1F | 7 to 10.5 | 7 to 10.5 | < 40
9 | NC(=O)c1cccc([C@H]2C[C@H]3CC[C@@H](C2)N3CCN(CC2CCCCC2)C(=O)[C@@H](O)Cc2ccccc2)c1 | 7 to 10.5 | 7 to 10.5 | < 40
10 | CS(=O)(=O)N(CCN1[C@@H]2CC[C@H]1C[C@@H](c1cccc(C(N)=O)c1)C2)Cc1ccccc1.O=C(O)C(F)(F)F | 7 to 10.5 | 7 to 10.5 | < 40
11 | CS(=O)(=O)CC(=O)N(CCN1[C@@H]2CC[C@H]1C[C@@H](c1cccc(C(N)=O)c1)C2)Cc1ccccc1.O=C(O)C(F)(F)F | 7 to 10.5 | 7 to 10.5 | < 40
12 | NC(=O)c1cccc([C@H]2C[C@H]3CC[C@@H](C2)N3CCN(Cc2ccc(F)cc2)C(=O)CO)c1.O=C(O)C(F)(F)F | 7 to 10.5 | 7 to 10.5 | < 40
13 | CN[C@@H](CO)C(=O)N(CCN1[C@@H]2CC[C@H]1C[C@@H](c1cccc(C(N)=O)c1)C2)CC1CCCCC1.O=C(O)C(F)(F)F.O=C(O)C(F)(F)F | 7 to 10.5 | 7 to 10.5 | < 40
14 | NC(=O)c1cccc([C@H]2C[C@H]3CC[C@@H](C2)N3CCN(CCc2cccc(F)c2)C(=O)CO)c1.O=C(O)C(F)(F)F | 7 to 10.5 | 7 to 10.5 | < 40
15 | CC(C)CC(=O)N(Cc1ccccc1)[C@H](C)CN1[C@@H]2CC[C@H]1C[C@@H](c1cccc(O)c1)C2 | 7 to 10.5 | 7 to 10.5 | < 40
16 | COC(=O)CCC(=O)N(CCN1[C@@H]2CC[C@H]1C[C@@H](c1cccc(C(N)=O)c1)C2)CC1CCCCC1 | 7 to 10.5 | 7 to 10.5 | < 40
17 | CC(C)CC(=O)N(CCN1[C@@H]2CC[C@H]1C[C@@H](c1cccc(O)c1)C2)CC1CCCCC1 | 7 to 10.5 | 7 to 10.5 | < 40
18 | NC(=O)c1cccc([C@H]2C[C@H]3CC[C@@H](C2)N3CCN(Cc2ccccc2)C(=O)C2(O)CC2)c1.O=C(O)C(F)(F)F | 7 to 10.5 | 7 to 10.5 | < 40
19 | NC(=O)c1cccc([C@H]2C[C@H]3CC[C@@H](C2)N3CCN(CC2CCCCC2)C(=O)[C@@H](O)CCO)c1.O=C(O)C(F)(F)F | 7 to 10.5 | 7 to 10.5 | < 40
20 | CS(=O)(=O)CC(=O)N(CCN1[C@@H]2CC[C@H]1C[C@@H](c1cccc(O)c1)C2)CC1CCCCC1 | 7 to 10.5 | 7 to 10.5 | < 40
21 | NC(=O)c1cccc([C@H]2C[C@H]3CC[C@@H](C2)N3CCN(Cc2c(F)cccc2F)C(=O)[C@@H](O)CO)c1.O=C(O)C(F)(F)F | 7 to 10.5 | 7 to 10.5 | < 40
22 | NC(=O)c1cccc([C@H]2C[C@H]3CC[C@@H](C2)N3CCN(Cc2c(F)cccc2F)C(=O)[C@H]2CC[C@H](O)CC2)c1.O=C(O)C(F)(F)F | 7 to 10.5 | 7 to 10.5 | < 40
23 | CC(C)(C(=O)N(CCN1[C@@H]2CC[C@H]1C[C@@H](c1cccc(C(N)=O)c1)C2)CC1CCC1)S(C)(=O)=O.O=C(O)C(F)(F)F | 7 to 10.5 | 7 to 10.5 | < 40
24 | NC(=O)c1cccc([C@H]2C[C@H]3CC[C@@H](C2)N3CCN(CCC2CCCCC2)C(=O)CO)c1 | 7 to 10.5 | 7 to 10.5 | < 40
25 | CS(=O)(=O)CC(=O)N(CCCN1[C@@H]2CC[C@H]1C[C@@H](c1cccc(C(N)=O)c1)C2)Cc1ccccc1.O=C(O)C(F)(F)F | 7 to 10.5 | 7 to 10.5 | < 40

Row | Compound | pKi [1] | pKi [2] | Intrinsic activity [3] [%]
26 | O=C(O)CC(=O)N(CCN1[C@@H]2CC[C@H]1C[C@@H](c1cccc(O)c1)C2)Cc1cccc(F)c1 | 7 to 10.5 | 7 to 10.5 | < 40
27 | NC(=O)c1cccc([C@H]2C[C@H]3CC[C@@H](C2)N3CCN(Cc2c(F)cccc2F)C(=O)[C@@H](O)Cc2ccccc2)c1.O=C(O)C(F)(F)F | 7 to 10.5 | 7 to 10.5 | < 40
28 | O=C(C1CCCC1)N(CCN1[C@@H]2CC[C@H]1C[C@@H](c1cccc(O)c1)C2)CC1CCCCC1 | 7 to 10.5 | 7 to 10.5 | < 40
29 | CC(CO)(CO)C(=O)N(CCN1[C@@H]2CC[C@H]1C[C@@H](c1cccc(C(N)=O)c1)C2)CC1CCCCC1 | 7 to 10.5 | 7 to 10.5 | < 40
30 | NC(=O)c1cccc([C@H]2C[C@H]3CC[C@@H](C2)N3CCN(CCCC2CCCCC2)C(=O)CO)c1 | 7 to 10.5 | 7 to 10.5 | < 40
31 | C[C@H](CN1[C@@H]2CC[C@H]1C[C@@H](c1cccc(O)c1)C2)N(Cc1ccccc1)C(=O)C1CC1 | 7 to 10.5 | 7 to 10.5 | < 40
32 | C[C@H](CN1[C@@H]2CC[C@H]1C[C@@H](c1cccc(O)c1)C2)N(Cc1ccccc1)C(=O)C1CCCC1 | 7 to 10.5 | 7 to 10.5 | < 40
33 | NC(=O)c1cccc([C@H]2C[C@H]3CC[C@@H](C2)N3CCN(CC2CCCCC2)C(=O)C[C@H](O)CO)c1.O=C(O)C(F)(F)F | 7 to 10.5 | 7 to 10.5 | < 40
34 | CS(=O)(=O)CC(=O)N(CCN1[C@@H]2CC[C@H]1C[C@@H](c1cccc(C(N)=O)c1)C2)Cc1ccc(F)cc1.O=C(O)C(F)(F)F | 7 to 10.5 | 7 to 10.5 | < 40
35 | CS(=O)(=O)CC(=O)N(CCN1[C@@H]2CC[C@H]1C[C@@H](c1cccc(C(N)=O)c1)C2)Cc1c(F)cccc1F | 7 to 10.5 | 7 to 10.5 | < 40
36 | NC(=O)c1cccc([C@H]2C[C@H]3CC[C@@H](C2)N3CCN(CC2CCCC2)C(=O)CO)c1.O=C(O)C(F)(F)F | 7 to 10.5 | 7 to 10.5 | < 40
37 | NC(=O)c1cccc([C@H]2C[C@H]3CC[C@@H](C2)N3CCN(CC(F)(F)c2ccccc2)C(=O)[C@@H](O)CO)c1.O=C(O)C(F)(F)F | 7 to 10.5 | 7 to 10.5 | < 40
38 | CC(C)(CC(=O)O)CC(=O)N(CCN1[C@@H]2CC[C@H]1C[C@@H](c1cccc(O)c1)C2)CC1CCCCC1 | 7 to 10.5 | 7 to 10.5 | < 40
39 | O=C(NCc1ccc(F)cc1)N(CCN1[C@@H]2CC[C@H]1C[C@@H](c1cccc(O)c1)C2)CC1CCCCC1 | 7 to 10.5 | 7 to 10.5 | < 40
40 | O=C(C1CCCCC1)N(CCN1[C@@H]2CC[C@H]1C[C@@H](c1cccc(O)c1)C2)CC1CCCCC1 | 7 to 10.5 | 7 to 10.5 | < 40
41 | CN(C)CC[C@H](O)C(=O)N(CCN1[C@@H]2CC[C@H]1C[C@@H](c1cccc(C(N)=O)c1)C2)CC1CCC(F)(F)CC1.O=C(O)C(F)(F)F.O=C(O)C(F)(F)F | 7 to 10.5 | 7 to 10.5 | < 40
42 | NC(=O)c1cccc([C@H]2C[C@H]3CC[C@@H](C2)N3CCN(CC2CCCC2)C(=O)[C@@H](O)CO)c1.O=C(O)C(F)(F)F | 7 to 10.5 | 7 to 10.5 | < 40
43 | O=C(O)CC(=O)N(CCN1[C@@H]2CC[C@H]1C[C@@H](c1cccc(O)c1)C2)CC1CCCCC1 | 7 to 10.5 | 7 to 10.5 | < 40
44 | CC(C)C[C@H](O)C(=O)N(CCN1[C@@H]2CC[C@H]1C[C@@H](c1cccc(C(N)=O)c1)C2)CC1CCCCC1 | 7 to 10.5 | 7 to 10.5 | < 40
45 | O=C(Cc1ccccc1)N(CCN1[C@@H]2CC[C@H]1C[C@@H](c1cccc(O)c1)C2)CC1CCCCC1 | 7 to 10.5 | 7 to 10.5 | < 40
46 | CC(C)C[C@H](O)C(=O)N(CCN1[C@@H]2CC[C@H]1C[C@@H](c1cccc(C(N)=O)c1)C2)Cc1c(F)cccc1F.O=C(O)C(F)(F)F | 7 to 10.5 | 7 to 10.5 | < 40
47 | O=C(CO)N(CCN1[C@@H]2CC[C@H]1C[C@@H](c1cccc(O)c1)C2)Cc1c(F)cccc1F | 7 to 10.5 | 7 to 10.5 | < 40
48 | CC(C)(CO)C(=O)N(CCN1[C@@H]2CC[C@H]1C[C@@H](c1cccc(C(N)=O)c1)C2)Cc1ccccc1.O=C(O)C(F)(F)F | 7 to 10.5 | 7 to 10.5 | < 40
49 | CS(=O)(=O)CC(=O)N(CCN1[C@@H]2CC[C@H]1C[C@@H](c1cccc(C(N)=O)c1)C2)CC1CCC1.O=C(O)C(F)(F)F | 7 to 10.5 | 7 to 10.5 | < 40
50 | CN(C)[C@@H](Cc1ccccc1)C(=O)N(CCN1[C@@H]2CC[C@H]1C[C@@H](c1cccc(O)c1)C2)CC1CCCCC1 | 7 to 10.5 | 7 to 10.5 | < 40

Source: ChEMBL document CHEMBL3879907, “8-azabicyclo[3.2.1]octane compounds as mu opioid receptor antagonists” (2014)
